Data reported in ChEMBL document CHEMBL1201862, “PubChem BioAssay data set” (2004).
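Values below derive from 48-hour exposures of cells grown in 96-well plates, with endpoints linearly interpolated between the two concentrations bracketing the appropriate inhibition level. GI50 = concentration required for 50% inhibition of growth.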 Calls of active or inactive are those of the source. Rule as the data show it: active = GI50 up to about 1.1 µM and inactive = higher.

Experiments:
Assay in all cases: NCI anticancer screen, dose series, 48 h
[1] = tested on: SF-268
[2] = tested on: Hs-578T
[3] = tested on: IGROV-1
[4] = tested on: MDA-MB-231
[5] = tested on: LOX IMVI
[6] = tested on: NCI-H226
[7] = tested on: KM12
[8] = tested on: SNB-19
[9] = tested on: 786-0
[10] = tested on: A549
[11] = tested on: MCF7
[12] = tested on: UACC-62
[13] = tested on: SK-MEL-28
[14] = tested on: MDA-N
[15] = tested on: HL-60
[16] = tested on: SK-MEL-2
[17] = tested on: SNB-75
[18] = tested on: K562
[19] = tested on: DU-145
[20] = tested on: MOLT-4
[21] = tested on: NCI-H460
[22] = tested on: PC-3
[23] = tested on: ACHN
[24] = tested on: RPMI-8226
[25] = tested on: Malme-3M
[26] = tested on: CCRF-CEM
[27] = tested on: HCT-15
[28] = tested on: UACC-257
[29] = tested on: BT-549
[30] = tested on: T47D
[31] = tested on: OVCAR-4
[32] = tested on: MDA-MB-435
[33] = tested on: TK-10
[34] = tested on: OVCAR-5
[35] = tested on: NCI-H23
[36] = tested on: HT-29
[37] = tested on: U-251
[38] = tested on: NCI/ADR-RES
[39] = tested on: SK-OV-3
[40] = tested on: SK-MEL-5
[41] = tested on: COLO 205
[42] = tested on: OVCAR-8
[43] = tested on: SF-295
[44] = tested on: EKVX
[45] = tested on: NCI-H522
[46] = tested on: SW-620
[47] = tested on: HCT-116
[48] = tested on: RXF 393
[49] = tested on: HCC 2998
[50] = tested on: A498
[51] = tested on: UO-31
[52] = tested on: SN12C
[53] = tested on: SR
[54] = tested on: HOP-62
[55] = tested on: M14
[56] = tested on: SF-539
[57] = tested on: OVCAR-3
[58] = tested on: CAKI-1
[59] = tested on: HOP-92

CN(C)CCOc1ccc(I)cc1Cc1ccccc1
GI50 [1]: 13.2 µM (inactive)
GI50 [2]: 11.1 µM (inactive)
GI50 [3]: 4.6 µM (inactive)
GI50 [4]: 3.89 µM (inactive)
GI50 [5]: 5.2 µM (inactive)
GI50 [6]: 15.9 µM (inactive)
GI50 [7]: 13.7 µM (inactive)
GI50 [8]: 13.7 µM (inactive)
GI50 [9]: 10.7 µM (inactive)
GI50 [10]: 15.5 µM (inactive)
GI50 [11]: 13 µM (inactive)
GI50 [12]: 3.28 µM (inactive)
GI50 [13]: 4.74 µM (inactive)
GI50 [14]: 5.31 µM (inactive)
GI50 [15]: 4.74 µM (inactive)
GI50 [16]: 15 µM (inactive)
GI50 [17]: 1.52 µM (inactive)
GI50 [18]: 3.39 µM (inactive)
GI50 [19]: 17.1 µM (inactive)
GI50 [20]: 5.21 µM (inactive)
GI50 [21]: 11.9 µM (inactive)
GI50 [22]: 8.28 µM (inactive)
GI50 [23]: 12.2 µM (inactive)
GI50 [24]: 6.34 µM (inactive)
GI50 [25]: 15.9 µM (inactive)
GI50 [26]: 4.85 µM (inactive)
GI50 [27]: 12.2 µM
GI50 [28]: 15.2 µM (inactive)
GI50 [29]: 14 µM (inactive)
GI50 [30]: 3.81 µM (inactive)
GI50 [31]: 11.8 µM (inactive)
GI50 [32]: 4.27 µM (inactive)
GI50 [33]: 12.7 µM (inactive)
GI50 [34]: 14.7 µM (inactive)
GI50 [35]: 4.05 µM (inactive)
GI50 [36]: 4.36 µM (inactive)
GI50 [37]: 12.4 µM (inactive)
GI50 [38]: 13.8 µM (inactive)
GI50 [39]: 18.6 µM (inactive)
GI50 [40]: 3.61 µM (inactive)
GI50 [41]: 11.9 µM (inactive)
GI50 [42]: 16 µM (inactive)
GI50 [43]: 15.4 µM (inactive)
GI50 [44]: 14.5 µM (inactive)
GI50 [45]: 11.9 µM (inactive)
GI50 [46]: 14.2 µM (inactive)
GI50 [47]: 10.6 µM (inactive)
GI50 [48]: 15 µM (inactive)
GI50 [49]: 3.29 µM (inactive)
GI50 [50]: 13.9 µM (inactive)
GI50 [51]: 7.69 µM (inactive)
GI50 [52]: 12.1 µM (inactive)
GI50 [53]: 2.65 µM (inactive)
GI50 [54]: 13.9 µM (inactive)
GI50 [55]: 2.66 µM (inactive)
GI50 [56]: 13.8 µM (inactive)
GI50 [57]: 13.2 µM (inactive)

COc1ccc([C@H]2CC(=O)C[C@H](c3ccc(OC)cc3OC)C23C(=O)c2ccccc2C3=O)c(OC)c1
GI50 [1]: > 100 µM (inactive)
GI50 [2]: > 100 µM (inactive)
GI50 [3]: > 100 µM (inactive)
GI50 [4]: > 100 µM (inactive)
GI50 [5]: 65 µM (inactive)
GI50 [6]: > 100 µM (inactive)
GI50 [7]: > 100 µM (inactive)
GI50 [8]: > 100 µM (inactive)
GI50 [9]: > 100 µM (inactive)
GI50 [10]: > 100 µM (inactive)
GI50 [11]: > 100 µM (inactive)
GI50 [12]: > 100 µM (inactive)
GI50 [13]: > 100 µM (inactive)
GI50 [14]: > 100 µM (inactive)
GI50 [15]: > 100 µM (inactive)
GI50 [16]: > 100 µM (inactive)
GI50 [17]: 26.9 µM (inactive)
GI50 [18]: > 100 µM (inactive)
GI50 [19]: > 100 µM (inactive)
GI50 [20]: > 100 µM (inactive)
GI50 [21]: > 100 µM (inactive)
GI50 [22]: > 100 µM (inactive)
GI50 [23]: > 100 µM (inactive)
GI50 [24]: > 100 µM (inactive)
GI50 [25]: > 100 µM (inactive)
GI50 [26]: > 100 µM (inactive)
GI50 [27]: > 100 µM
GI50 [28]: > 100 µM (inactive)
GI50 [29]: > 100 µM (inactive)
GI50 [30]: > 100 µM (inactive)
GI50 [31]: > 100 µM (inactive)
GI50 [32]: > 100 µM (inactive)
GI50 [33]: > 100 µM (inactive)
GI50 [34]: > 100 µM (inactive)
GI50 [35]: > 100 µM (inactive)
GI50 [36]: > 100 µM (inactive)
GI50 [37]: > 100 µM (inactive)
GI50 [38]: > 100 µM (inactive)
GI50 [39]: > 100 µM (inactive)
GI50 [40]: 68.1 µM (inactive)
GI50 [41]: > 100 µM (inactive)
GI50 [58]: > 100 µM (inactive)
GI50 [42]: 99.5 µM (inactive)
GI50 [43]: > 100 µM (inactive)
GI50 [44]: > 100 µM (inactive)
GI50 [45]: > 100 µM (inactive)
GI50 [46]: > 100 µM (inactive)
GI50 [47]: > 100 µM (inactive)
GI50 [48]: > 100 µM (inactive)
GI50 [49]: > 100 µM (inactive)
GI50 [59]: 27.3 µM (inactive)
GI50 [51]: > 100 µM (inactive)
GI50 [52]: > 100 µM (inactive)
GI50 [53]: > 100 µM (inactive)
GI50 [54]: > 100 µM (inactive)
GI50 [55]: > 100 µM (inactive)
GI50 [56]: > 100 µM (inactive)
GI50 [57]: > 100 µM (inactive)
